The values that follow come from PubChem BioAssay (NCI).

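Results reflect a 48-hour exposure of cells in 96-well plates to compound at five concentrations. Here, GI50 denotes the concentration required for 50% inhibition of growth. TGI marks complete inhibition of growth.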

Common to all, as to assay: DTP human tumour cell line panel, 48 h
Experiment [1] has as its system K-562 leukemia.
Experiment [2] deals with SN12C renal.
The subject of experiment [3] is UACC-62 melanoma.
Experiment [4] relates to SK-OV-3 ovarian.
Experiment [5] concerns MALME-3M melanoma.
In experiment [6] the test system is U251 CNS.
In experiment [7] the test system is NCI/ADR-RES ovarian.
Experiment [8] has as its system MDA-MB-435.
In experiment [9] the test system is MDA-MB-231 breast.
Experiment [10] has as its system DU-145 prostate.

In the case of `Cc1cc(S(=O)(=O)O)c(NC(=O)C(=O)Cc2cc(=O)oc3cc(O)ccc23)cc1Cl`, the TGI in [1], in [2], in [3], in [4], in experiment [5] and in [6] was > 100 µM throughout.

On to `CCC1CCc2c(c(=O)oc3c2cc(OC)c2cccc(OC)c23)C1` (centres undefined), for which the TGI in experiment [1], in experiment [2], in experiment [3], in experiment [4], in [5] and in experiment [6] was > 100 µM throughout.

Regarding `COc1ncc(-c2ccc3ncnc(Nc4cccc(Cl)c4)c3c2)cc1NS(=O)(=O)C1CC1`, the GI50 – broadly, the concentration giving 50% growth inhibition – in experiment [7] was 1.17 µM; in experiment [1] it was > 100 µM; in experiment [2], 1.58 µM; in [8], > 100 µM; in [9], 3.38 µM; in experiment [6], 4.75 µM. Further, the TGI in experiment [7], in experiment [1], in experiment [2], in experiment [8], in [9] and in [6] was > 100 µM each time.

In the case of `O=C1OCC2C1C1c3ccccc3C(O)c3ccccc3C21` (centres undefined), the TGI in experiment [1], in experiment [2], in experiment [3], in experiment [4], in [5] and in experiment [6] was > 100 µM in each case.

In the case of `CC(C)C(=O)NS(=O)(=O)c1ccccc1`, the TGI in experiment [1], in [2], in experiment [3], in [4], in [5] and in [6] was > 100 µM throughout.

As to `Cc1c(/C=N/NC(=O)c2ccc(Cl)cc2)c(=O)n(-c2ccccc2)n1C`, the TGI in experiment [1], in experiment [2], in [3], in experiment [4], in experiment [5] and in experiment [6] was > 100 µM in each case.

`O=P1(c2ccccc2)CCCCC1`: the TGI in experiment [1], in experiment [2], in experiment [3], in [4], in [5] and in experiment [6] was > 100 µM throughout.

As to `CC(C)C(=O)Nc1nc2c(ncn2C2OC(CO)C(O)C2O)c(=O)[nH]1` (centres undefined), the TGI in experiment [1], in [2], in experiment [3], in [4], in experiment [5] and in experiment [6] was > 100 µM in each case.

`O=S(=O)(c1ccccc1)C1CN2OC1(S(=O)(=O)c1ccccc1)CC2c1ccc(Br)cc1` (centres undefined): the TGI in [1], in experiment [2], in experiment [3], in [4], in experiment [5] and in [6] was > 100 µM throughout.

Take `O=[N+]([O-])c1ccc(N2N=C(c3ccc(NCc4nc5ccccc5[nH]4)cc3)CC2c2ccco2)cc1` (centres undefined): the TGI (as a rule, the concentration giving total growth inhibition) in [1] was > 100 µM; in experiment [2], 61.9 µM; in experiment [3], 69.3 µM; in experiment [4], > 100 µM; in experiment [5], 66.4 µM; in experiment [6], > 100 µM.

In the case of `COc1cc2c(OC)cc1CSCc1sc(C)c(c1Br)CSC2`, the TGI in [1], in [2], in [3], in experiment [4], in experiment [5] and in experiment [6] was > 100 µM throughout.

Take `Cc1nn(C(=O)Cc2ccccc2)c2c1C(c1ccc(Cl)cc1)SC(N)=N2` (centres undefined): the TGI in experiment [10], in [1], in [2], in experiment [8], in experiment [3] and in experiment [4] was > 100 µM throughout. Besides, the TGI in experiment [5] and in [9] was > 100 µM in each case.

Regarding `CN(C)CCNC(=O)c1ccc2nc3c(nc2c1)C(=O)c1ccccc1-3`, the TGI in experiment [10] was > 100 µM; in experiment [2] it was > 100 µM; in [8] it was 48.2 µM; in experiment [3], > 100 µM; in experiment [4], > 100 µM; in [5] it was 82.3 µM. Further, the TGI in experiment [6] was 71.5 µM.

Regarding `CC1COC(C)(C)P(=O)(c2ccccc2)C1` (centres undefined), the TGI in experiment [1], in experiment [2], in experiment [3], in experiment [4], in experiment [5] and in experiment [6] was > 100 µM throughout.

In the case of `CCn1c(=O)c2c(=O)c3c4c(oc3oc2c2ccccc21)C(=O)c1ccccc1C4=O`, the GI50 in [10] was > 100 µM; in [7] it was 13.8 µM; in experiment [1] it was 1.73 µM; in experiment [2], > 100 µM; in [8], > 100 µM; in experiment [3], > 25 µM. Besides, the GI50 is > 100 µM in experiment [4], > 100 µM in experiment [5] and > 27.1 µM in experiment [6]. Besides, the TGI in experiment [10], in experiment [7], in experiment [1], in [2], in experiment [8] and in [3] was > 100 µM throughout. Besides, the TGI in experiment [4], in [5] and in experiment [6] was > 100 µM each time.

In the case of `CCOP(=O)(OCC)OC1C=CC2CCC1C2` (centres undefined), the TGI in experiment [1], in experiment [2], in [3], in experiment [4], in experiment [5] and in [6] was > 100 µM each time.

Consider `COC1(OC)CC2C(=O)N(Cc3ccccc3)C1C=C2S(=O)(=O)c1ccccc1` (centres undefined), for which the TGI in experiment [1] was 63.2 µM; in experiment [2], 30.1 µM; in experiment [3], 31.3 µM; in experiment [4], > 100 µM; in experiment [5], 39.6 µM; in experiment [6], 29 µM.

Take `Cc1ccc(S(=O)(=O)c2ccc(N)cc2)cc1`: the TGI in experiment [1], in [3], in experiment [4], in [5] and in experiment [6] was > 100 µM in each case.

For the compound `Cc1cc(NS(=O)(=O)c2ccc(Nc3c4ccccc4nc4c(C(=O)N5CCN(CCO)CC5)ccc(Cl)c34)cc2)no1`, the TGI in experiment [1], in experiment [2], in [3], in [4], in [5] and in [6] was > 100 µM in each case.

On to `S=c1[nH]c(=S)c2nnn(-c3ccccc3)c2[nH]1`, for which the TGI in experiment [1], in experiment [2], in experiment [3], in [4], in experiment [5] and in [6] was > 100 µM in each case.

`Cc1nc([N+](=O)[O-])cn1CC(=N)N`: the TGI in [1], in experiment [2], in [3], in experiment [5] and in experiment [6] was > 100 µM each time.

On to `CC(C)N(C(=O)C12C3C4C1(I)C1C2C3(I)C41C(=O)N(C(C)C)C(C)C)C(C)C` (centres undefined), for which the TGI in experiment [1] is > 63.6 µM; in experiment [2], > 100 µM; in experiment [3] it was > 100 µM; in experiment [4], > 100 µM; in experiment [5], > 100 µM; in [6] it was > 100 µM.

Turning to `COC(=O)/C=C/c1c(CC=C(C)C)ncn1C`, the TGI in experiment [1] was > 100 µM; in [2], > 100 µM; in experiment [3], > 100 µM; in experiment [4], > 100 µM; in experiment [5] it was > 100 µM; in experiment [6], > 67.1 µM.

As for `CCCN1CN(C(C(=O)N[C@@H]2C(=O)N3C2SC(C)(C)C3C(=O)O)c2ccc(O)cc2)CSC1=S` (some centres undefined), the TGI in experiment [1], in experiment [2], in experiment [3], in [4], in experiment [5] and in [6] was > 100 µM in each case.

For the compound `COC(=O)[C@H]1C=C[C@@H](C)n2c(=O)c3cc4ccccc4cc3c(=O)n21`, the TGI in experiment [1], in [2], in experiment [4], in [5] and in experiment [6] was > 100 µM each time.

On to `Cc1ccc(NC(=O)CSc2nnc(-c3ccc(N=Cc4ccc(Cl)cc4)cc3)o2)cc1`, for which the TGI in experiment [1], in experiment [2], in experiment [3], in [4], in experiment [5] and in [6] was > 100 µM throughout.

As for `N#CC(C(=O)C(=O)Nc1ccc(Cl)cc1)c1ccccc1` (centres undefined), the TGI in experiment [1] was > 100 µM; in [2], > 100 µM; in [3], 77.9 µM; in experiment [4] it was > 100 µM; in experiment [5], > 100 µM; in experiment [6], > 100 µM.

As to `COc1cc(C=O)c(-c2cc(OC)c(OC)cc2C=O)cc1OC`, the TGI in [1], in [2], in experiment [3], in experiment [4], in [5] and in experiment [6] was > 100 µM each time.

Take `CCCO/S(=N\S(=O)(=O)c1ccccc1)c1ccccc1[N+](=O)[O-]` (centres undefined): the TGI in experiment [1], in experiment [2], in experiment [3], in experiment [4], in [5] and in [6] was > 100 µM each time.

With `CC(C)N(CCn1c2c3ccccc3ccc2c2oc(=O)c3ccccc3c21)C(C)C`, the TGI in experiment [1], in experiment [2], in experiment [3], in experiment [4], in experiment [5] and in experiment [6] was > 100 µM throughout.

On to `C/C(CC(=O)Nc1cccc(Cl)c1C)=N\NC(=O)c1ccncc1`, for which the TGI in [1], in experiment [3], in experiment [4], in experiment [5] and in experiment [6] was > 100 µM in each case.

`Cc1cc(C)nc(NS(=O)(=O)c2ccc(NC(=O)c3cccc4c(Nc5ccc(S(N)(=O)=O)cc5)c5ccccc5nc34)cc2)n1`: the TGI is > 67.6 µM in experiment [1]; > 82.6 µM in experiment [2]; > 100 µM in [3]; 28.4 µM in experiment [4]; 55.5 µM in experiment [5]; > 71.2 µM in experiment [6].

With `CC(=O)O[C@H]1CCC2[C@@H]3CCC4Nc5[nH]ncc5C[C@]4(C)C3CC[C@@]21C` (some centres undefined), the TGI in experiment [1] is > 100 µM; in experiment [2] it was > 100 µM; in experiment [3] it was 60.3 µM; in experiment [4], > 100 µM; in experiment [5], > 100 µM; in experiment [6], > 100 µM.

With `COc1c[c]([Hg][O]C(C)=O)c(OC)c(NC(=O)CC(C)=O)[c]1[Hg][O]C(C)=O`, the GI50 is 1.48 µM in experiment [1]; 13.7 µM in experiment [2]; 11.4 µM in experiment [3]; 18.6 µM in experiment [4]; 1.53 µM in experiment [5]; 12.6 µM in [6]. Moreover, the TGI worked out at 5.53 µM in [1]; 27.8 µM in experiment [2]; 24.1 µM in experiment [3]; 32.7 µM in experiment [4]; 3 µM in experiment [5]; 27.8 µM in [6].

As for `O=C(/C=C/c1ccccc1Cl)NC1C=Nc2ccc([N+](=O)[O-])cc2NC1` (centres undefined), the TGI in [1], in experiment [2], in experiment [3], in [4], in [5] and in experiment [6] was > 100 µM throughout.

Take `O=Cc1ccc2c(c1-c1c(C=O)ccc3c1OCO3)OCO2`: the TGI in [1], in experiment [2], in [3], in experiment [4], in experiment [5] and in experiment [6] was > 100 µM throughout.
